Experimental data from PMC8787483 (mBio, 2022).

Molecular target: Gnp2 (CR_09920W) (Candida albicans, UniProt A0A1D8PU37)
Conditions: 10 mM proline as sole carbon source, YNB, ammonium sulfate, pH 4.5, 37 °C, 6 h

Gnp2 (CR_09920W), sequence (A0A1D8PU37 entry or part of it): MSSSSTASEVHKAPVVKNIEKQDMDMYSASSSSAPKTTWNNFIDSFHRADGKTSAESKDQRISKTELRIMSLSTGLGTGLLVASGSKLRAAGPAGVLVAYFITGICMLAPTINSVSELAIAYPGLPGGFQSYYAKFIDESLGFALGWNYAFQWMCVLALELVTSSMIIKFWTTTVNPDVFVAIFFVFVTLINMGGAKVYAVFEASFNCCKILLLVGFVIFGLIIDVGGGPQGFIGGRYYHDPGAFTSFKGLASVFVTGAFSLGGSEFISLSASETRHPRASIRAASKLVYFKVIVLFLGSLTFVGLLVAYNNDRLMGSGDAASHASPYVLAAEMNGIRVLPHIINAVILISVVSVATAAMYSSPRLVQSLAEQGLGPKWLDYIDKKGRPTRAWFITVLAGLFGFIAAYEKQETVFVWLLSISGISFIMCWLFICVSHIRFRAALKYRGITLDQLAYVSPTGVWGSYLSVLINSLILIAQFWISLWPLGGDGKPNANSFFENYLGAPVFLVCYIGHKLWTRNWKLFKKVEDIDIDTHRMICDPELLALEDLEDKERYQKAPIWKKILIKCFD

O=C(O)[C@@H]1CCCN1 [proline]
LC-MS of extracellular proline, wild type vs gnp2 deletion vs complemented cells: extracellular proline concentration was significantly reduced in the wild type and the GNP2 complemented strain
